The results in this text go back to US7589086B2, “Substituted pyrazolo[3,4-D]pyrimidines as anti-tumor agents” (Universita degli Studi di Siena, priority 2003, dated 2009).

The test system of assay [1] is A431 human epidermoid carcinoma cells. As to the kind of experiment: Cell proliferation assay (MTT), A431. Format: cell-based. The settings on record: compounds 0-100 μM, 72 hours, means ± SEM, NA = not active at 100 μM concentration. On the procedure: (§1) A431 (2×10^4 cells/mL) were incubated in […] DMEM culture medium (BioWhittaker, Vallensbaek, DK). Differently, 8701-BC (2×10^4 cells/mL) were incubated in 100 μL RPMI 1640 culture medium (BioWhittaker, Vallensbaek, DK). Both cell lines were supplemented with 10% foetal calf serum (FCS; BioWhittaker, Vallensbaek, DK) and antibiotics (100 U/mL penicillin and 100 μg/mL streptomycin), at 37° C. in 5% CO2 for 8 hours, to allow adhesion. After adhesion, the medium was replaced with 100 μL medium supplemented with 0.5% FCS. After an overnight incubation, the medium was replaced and 100 μL DMEM with 10% FCS along with different concentrations (0-100 μM) of the studied compounds were added to cell cultures.
(§2) Following 72 hours, cells were treated with 10 μL of the 3-(4,5-dimethylthiazol-2-yl)-[…] (MTT) solution (5 mg/mL). Four hours later, 100 μL of propan-2-ol in a 0.04 M HCl solution were added to dissolve the formazan product. The microplates were read using an ELISA plate reader at 570 nm with a reference wavelength of 630 nm.

The test system of assay [2] is 8701-BC breast cancer cells. As to the kind of experiment: Cell proliferation assay (MTT), 8701-BC. The settings on record: exponentially growing 8701-BC cells, compounds 0-100 μM, 72 hours, means ± SEM, NA = not active at 100 μM concentration. The class given is cell-based, human. On the procedure:
as §1, §2

The next assay deals with Meg-01 cells. As to the kind of experiment: Cell proliferation assay, Meg-01. Format: cell-based, human. Particulars: compounds 0-100 μM, means ± SEM. As to the method:
(§3) MEG-01 and K562 (2×10^4 cells/mL) were incubated in 100 μL RPMI 1640 culture medium (BioWhittaker, Vallensbaek, DK), supplemented with 10% foetal calf serum (FCS; BioWhittaker, Vallensbaek, DK) and antibiotics (100 U/mL penicillin and 100 μg/mL streptomycin), at 37° C. in 5% CO2. After an overnight incubation with 100 μL medium supplemented with 0.5% FCS, the medium was replaced and 100 μL RPMI 1640 with 10% FCS along with different concentrations (0-100 μM) of the studied compounds, were added to cell cultures.

The subject of another assay is K562 cells. As to the kind of experiment: Cell proliferation assay, K562. The class given is cell-based, human. The settings on record: compounds 0-100 μM, means ± SEM. On the procedure: as §3
Another assay concerns the target T1, Src (Tyr416) (Homo sapiens, UniProt P12931).
T1 construct: subjected to immunoblot using phospho-specific antibodies against Src (Y416) and non pospho-specific Src as control; endogenous in cells; host or cells: 8701-BC breast cancer cells
As to the kind of experiment: Phospho-Src inhibition, immunoblot, 8701-BC cells after EGF stimulation. Format: cell-based. As to the method:
FIG. 3. […] Immunoblot analysis was performed using phospho-specific antibodies to Src (Tyr416). Filters were additionally reprobed with specific non-phospho anti-Src antibodies after stripping. Lane 1: cell control; lane 2: cells treated for 15 min with EGF (100 nM); lane 3-7: cells challenged for 3 h in the presence of 10 μM of the specified compound and then treated for 15 min with EGF (100 nM).
Immunoblot analysis was performed using phospho-specific antibodies to Src (Tyr416). Filters were additionally reprobed with specific non-phospho anti-Src antibodies after stripping.
Cells were treated as reported above but the cells were challenged with the compounds for 3 h, and then treated with 100 nM EGF (Cell Signaling Technology, MA, U.S.A.). […] later, cells were harvested and lysed in an appropriate buffer containing 1% Triton X-100. Proteins were quantitated by the BCA method (Pierce Rockford, U.S.A.). Equal amounts of total cellular protein were resolved by SDS-polyacrylamide gel electrophoresis, transferred to nitrocellulose filters and subjected to immunoblot using phospho-specific antibodies against Src (Y416) and non pospho-specific Src as control (Cell Signaling Technology, MA, U.S.A.).
(In general: A western blot detects proteins with antibodies after separation by electrophoresis.)

Setting [3] is: 10 μM compound 3 h, then 100 nM EGF 15 min, immuno blot gel area.

A word on the IC50: it is the concentration at which inhibition is half-maximal.

T1 sequence (P12931 whole entry): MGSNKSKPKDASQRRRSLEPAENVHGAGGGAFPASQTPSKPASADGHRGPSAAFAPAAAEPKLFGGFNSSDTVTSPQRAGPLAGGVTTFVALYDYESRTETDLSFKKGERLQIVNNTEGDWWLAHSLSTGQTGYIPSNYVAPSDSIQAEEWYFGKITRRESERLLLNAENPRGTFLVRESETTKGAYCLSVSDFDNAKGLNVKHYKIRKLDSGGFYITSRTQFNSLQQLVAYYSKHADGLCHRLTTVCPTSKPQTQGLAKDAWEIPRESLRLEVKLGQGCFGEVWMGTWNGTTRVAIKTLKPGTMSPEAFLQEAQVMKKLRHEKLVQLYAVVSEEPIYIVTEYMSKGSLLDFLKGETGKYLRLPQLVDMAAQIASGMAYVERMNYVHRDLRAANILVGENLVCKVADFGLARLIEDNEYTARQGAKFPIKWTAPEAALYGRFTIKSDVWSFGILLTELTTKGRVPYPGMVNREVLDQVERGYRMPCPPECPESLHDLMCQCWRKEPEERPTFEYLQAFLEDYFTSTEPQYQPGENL

`OC(Cn1ncc2c(NCc3ccccc3)ncnc21)c1ccccc1` (centres unmarked) [Compound 3e]: inhibition in assay [1] was half-maximal at 12.7 ± 0.7 µM (IC50).
With `CSc1nc(NCc2ccccc2)c2cnn(C=Cc3ccccc3)c2n1` [Compound 4l], in assay [1], the IC50 worked out at 39.8 ± 0.6 µM.
Turning to `CCN(CC)c1nc(SC)nc2c1cnn2CC(Cl)c1ccccc1` (centres unmarked) [Compound 1h], the results for the IC50 in assay [2] and in assay [1] were 86.9 ± 1.2 µM and 70.2 ± 1.4 µM, respectively.
As to `CCCCNc1ncnc2c1cnn2CC(Br)c1ccccc1` (centres unmarked) [Compound 5d], the figures for the IC50 (in the assay with Meg-01 cells; in assay [1]; with K562 cells) were 19.4 ± 0.4 µM, 33.6 ± 1.2 µM and 34.3 ± 0.9 µM, respectively.
Turning to `CCSc1nc(N2CCOCC2)c2cnn(C=Cc3ccccc3)c2n1` [Compound 4k], the IC50 stood at 12.1 ± 1.1 µM in the assay on Meg-01 cells, 49.8 ± 0.8 µM in assay [1] and 75.1 ± 1.7 µM with K562 cells.
For `OC(Cn1ncc2c(NCc3ccc(F)cc3)ncnc21)c1ccccc1` (centres unmarked) [Compound 3g], the half-inhibitory concentration (IC50) in assay [2] came out at 54.4 ± 1.5 µM; in assay [1], 95.7 ± 2.3 µM.
Turning to `CCCCNc1ncnc2c1cnn2C=Cc1ccccc1` [Compound 4c], the values for the IC50 in assay [2] and in assay [1] were 80.5 ± 6.8 µM and 91.5 ± 2 µM, respectively.
Consider `BrC(Cn1ncc2c(NC3CCCCC3)ncnc21)c1ccccc1` (centres unmarked) [Compound 5i], for which the half-inhibitory concentration (IC50) with Meg-01 cells amounted to 32.7 ± 0.3 µM; in assay [1] it was 28.2 ± 0.4 µM; in the assay with K562 cells it was 38.2 ± 0.8 µM.
With `C(=Cn1ncc2c(NCc3ccccc3)ncnc21)c1ccccc1` [Compound 4i], the 50% inhibitory concentration (IC50) was determined as 65 ± 0.3 µM in assay [2] and 11.7 ± 0.1 µM in assay [1].
`CCOCCNc1ncnc2c1cnn2C=Cc1ccccc1` [Compound 4f] gave an IC50 in assay [2] of 43.4 ± 0.4 µM.
`CCSc1nc(N2CCOCC2)c2cnn(CC(Cl)c3ccccc3)c2n1` (centres unmarked) [Compound 2b]: the concentration for half-maximal inhibition (IC50) in assay [2] was determined as 79.8 ± 3 µM; in assay [1], 42.3 ± 0.7 µM.
Take `CCCNc1nc(SCC)nc2c1cnn2CC(Cl)c1ccccc1` (centres unmarked) [Compound 2d]: the IC50 in assay [2] is 28.6 ± 1.6 µM; in assay [1], 79.4 ± 1.8 µM.
As to `CCCCNc1nc(SC)nc2c1cnn2CC(Cl)c1ccccc1` (centres unmarked) [Compound 1d], the IC50 was 63.8 ± 2.1 µM in assay [2] and 27.4 ± 0.5 µM in assay [1].
Regarding `C(=Cn1ncc2c(N3CCCCC3)ncnc21)c1ccccc1` [Compound 4a], the IC50 in assay [1] was found to be 69.3 ± 1.2 µM.
Take `C(=Cn1ncc2c(N3CCOCC3)ncnc21)c1ccccc1` [Compound 4b]: the IC50 in assay [2] came to 58.8 ± 0.7 µM; in assay [1] it was 59.2 ± 1 µM.
`C(=Cn1ncc2c(NC3CCCCC3)ncnc21)c1ccccc1` [Compound 4h]: in assay [2], the IC50 was 50.5 ± 1.3 µM.
Turning to `C(=Cn1ncc2c(NCCc3ccccc3)ncnc21)c1ccccc1` [Compound 4j], the 50% inhibitory concentration (IC50) worked out at 64.7 ± 0.6 µM in assay [2] and 15 ± 1.2 µM in assay [1].
In turn, `CSc1nc(N2CCCCC2)c2cnn(C=Cc3ccccc3)c2n1` [Compound 4m] displayed an IC50 in assay [1] of 54.1 ± 0.7 µM.
Turning to `CSc1nc(NCc2ccccc2)c2cnn(CC(Cl)c3ccccc3)c2n1` (centres unmarked) [Compound 1e], the IC50 was 53.2 ± 1.2 µM in assay [2] and 24.6 ± 0.7 µM in assay [1].
Turning to `COc1cc2ncnc(Nc3cccc(Cl)c3)c2cc1OC` [AG1478, reference compound], 20.2 ± 0.4 µM corresponded to half-maximal inhibition in assay [1] (IC50).
`CSc1nc(NCCc2ccccc2)c2cnn(CC(Cl)c3ccccc3)c2n1` (centres unmarked) [Compound 1f]: 31.2 µM corresponded to half-maximal inhibition in assay [2] (IC50). Further, the “Phospho-Src/Non-phospho-Src ratio (%)” value at Src (Tyr416) (10 μM compound 3 h, then 100 nM EGF 15 min, Control + EGF 56, Control 23) was 9%. At Src (Tyr416) (setting [3]), the Non-phospho-Src is reported as 168 area units and the “Phospho-Src (Tyr416)” value turned out to be 15 area units. Also, the “inhibition of Src phosphorylation compared with PP2 (in words)” value against Src (Tyr416) (immunoblot, phospho-specific antibodies to Src (Tyr416)) is on record as “inhibit Src phosphorylation better than the reference compound PP2”. The IC50 in assay [1] was 27.1 ± 0.2 µM.
As to `CCCNc1ncnc2c1cnn2CC(O)c1ccccc1` (centres unmarked) [Compound 3d], the IC50 in assay [1] came out at 91.2 ± 1.4 µM.
For the molecule `CCSc1nc(NCc2ccccc2)c2cnn(CC(Cl)c3ccccc3)c2n1` (centres unmarked) [Compound 2f], the IC50 in assay [2] was determined as 42.8 ± 0.8 µM.
Turning to `C(=Cn1ncc2c(N3CCCC3)ncnc21)c1ccccc1` [Compound 4g], the values for the concentration for half-maximal inhibition (IC50) in assay [2] and in assay [1] were 50.4 ± 0.1 µM and 63.1 ± 1 µM, respectively.
As for `CCCNc1ncnc2c1cnn2C=Cc1ccccc1` [Compound 4e], the results for the 50% inhibitory concentration (IC50) in assay [2] and in assay [1] were 57.2 ± 0.8 µM and 61.2 ± 1 µM, respectively.
For the molecule `CCSc1nc(N2CCCC2)c2cnn(CC(Cl)c3ccccc3)c2n1` (centres unmarked) [Compound 2e], the IC50 in assay [2] amounted to 72.1 ± 1.7 µM; in assay [1], 89.3 ± 1.7 µM.
`OC(Cn1ncc2c(NCCc3ccccc3)ncnc21)c1ccccc1` (centres unmarked) [Compound 3f]: the figures for the half-inhibitory concentration (IC50) in assay [2] and in assay [1] were 45.6 ± 0.5 µM and 80.1 ± 2.5 µM, respectively.
In the same order, the values of `CSc1nc(N2CCCC2)c2cnn(CC(Cl)c3ccccc3)c2n1` (centres unmarked) [Compound 1i] are 56.3 ± 2 µM and 32.3 ± 0.8 µM.
For `CCCCNc1nc(SCC)nc2c1cnn2CC(Cl)c1ccccc1` (centres unmarked) [Compound 2c], the half-inhibitory concentration (IC50) worked out at 38.8 ± 0.5 µM in assay [2], 40.2 ± 0.4 µM in assay [1] and 27.4 ± 0.6 µM in the assay with K562 cells.
In turn, `CSc1nc(N2CCCCCC2)c2cnn(CC(Cl)c3ccccc3)c2n1` (centres unmarked) [Compound 1j] gave an IC50 in assay [2] of 54.4 ± 0.8 µM.
`CSc1nc(N2CCOCC2)c2cnn(C=Cc3ccccc3)c2n1` [Compound 4n] displayed a half-inhibitory concentration (IC50) in assay [1] of 35.7 ± 0.6 µM.
Same read-out and setting: the result for `CCCCNc1ncnc2c1cnn2CC(O)c1ccccc1` (centres unmarked) [Compound 3b] reads 83.2 ± 1.8 µM.
As for `CCOCCNc1nc(SC)nc2c1cnn2CC(Cl)c1ccccc1` (centres unmarked) [Compound 1c], the results for the half-maximal inhibitory concentration (IC50) in assay [2] and in assay [1] were 59.8 ± 3.1 µM and 32.4 ± 0.6 µM, respectively.
Regarding `CSc1nc(NC2CCCCC2)c2cnn(CC(Cl)c3ccccc3)c2n1` (centres unmarked) [Compound 1k], the IC50 in assay [2] came out at 35.3 ± 0.5 µM; in assay [1], 43.8 ± 0.7 µM.
In the case of `CSc1nc(N2CCCCC2)c2cnn(CC(Cl)c3ccccc3)c2n1` (centres unmarked) [Compound 1a], the IC50 in assay [2] was determined as 67.5 ± 1.2 µM; in assay [1], 37.6 ± 0.8 µM.
As to `CCCNc1nc(SC)nc2c1cnn2CC(Cl)c1ccccc1` (centres unmarked) [Compound 1g], the IC50 in assay [2] stood at 64.1 ± 0.5 µM; in assay [1], 32.1 ± 0.5 µM.
In the case of `C(=Cn1ncc2c(N3CCCCCC3)ncnc21)c1ccccc1` [Compound 4d], the IC50 in assay [2] was found to be 93.7 ± 0.6 µM; in assay [1], 43.6 ± 1.3 µM.
In assay [1], `OC(Cn1ncc2c(N3CCOCC3)ncnc21)c1ccccc1` (centres unmarked) [Compound 3a] registered a half-inhibitory concentration (IC50) of 86.9 ± 2.1 µM.
Regarding `CSc1nc(N2CCOCC2)c2cnn(CC(Cl)c3ccccc3)c2n1` (centres unmarked) [Compound 1b], the IC50 is 64.2 µM in assay [2] and 26.9 ± 0.4 µM in assay [1].
In assay [1], `OC(Cn1ncc2c(N3CCCCC3)ncnc21)c1ccccc1` (centres unmarked) [Compound 3c] showed an IC50 of 13.4 ± 0.2 µM.
